Source: the NIST ThermoML archive (doi:10.1021/je2007764)

Assay: xn = mol fraction of the nth substance listed
Settings: Fluid (supercritical or subcritical phases), Buoyancy - hydrostatic balance with magnetic suspension - one sinker

[C-]#[O+] [carbon monoxide] + N#N
Settings | mass density [kg/m3]
299.96 K, 1003.8 kPa, x1 = 0.04999 | 11.294
299.96 K, 2981.9 kPa, x1 = 0.04999 | 33.609
299.96 K, 4997.9 kPa, x1 = 0.04999 | 56.34
299.96 K, 6998.3 kPa, x1 = 0.04999 | 78.744
299.96 K, 9086.5 kPa, x1 = 0.04999 | 101.826
299.96 K, 11000 kPa, x1 = 0.04999 | 122.587
299.96 K, 12998 kPa, x1 = 0.04999 | 143.747
299.96 K, 14954 kPa, x1 = 0.04999 | 163.889
299.97 K, 986.71 kPa, x1 = 0.04999 | 11.101
299.97 K, 992.98 kPa, x1 = 0.1002 | 11.173
299.97 K, 1001.9 kPa, x1 = 0.1002 | 11.274
299.97 K, 1989.8 kPa, x1 = 0.1002 | 22.417
299.97 K, 1993.4 kPa, x1 = 0.04999 | 22.457
299.97 K, 2993.6 kPa, x1 = 0.1002 | 33.744
299.97 K, 3975 kPa, x1 = 0.04999 | 44.812
299.97 K, 3998.4 kPa, x1 = 0.1002 | 45.092
299.97 K, 5020.8 kPa, x1 = 0.1002 | 56.608
299.97 K, 5999.2 kPa, x1 = 0.1002 | 67.6
299.97 K, 6020.2 kPa, x1 = 0.04999 | 67.811
299.97 K, 7034 kPa, x1 = 0.1002 | 79.163
299.97 K, 8024.8 kPa, x1 = 0.04999 | 90.132
299.97 K, 9073.7 kPa, x1 = 0.1002 | 101.718
299.97 K, 9997.1 kPa, x1 = 0.1002 | 111.8
299.97 K, 10017 kPa, x1 = 0.04999 | 111.971
299.97 K, 11008 kPa, x1 = 0.1002 | 122.717
299.97 K, 11999 kPa, x1 = 0.1002 | 133.29
299.97 K, 13003 kPa, x1 = 0.1002 | 143.858
299.97 K, 13997 kPa, x1 = 0.1002 | 154.176
299.97 K, 14807 kPa, x1 = 0.1002 | 162.461
299.97 K, 15370 kPa, x1 = 0.1002 | 168.159
299.98 K, 7997.5 kPa, x1 = 0.1002 | 89.866
299.98 K, 11889 kPa, x1 = 0.04999 | 132.063
299.98 K, 13997 kPa, x1 = 0.04999 | 154.113
299.98 K, 15997 kPa, x1 = 0.04999 | 174.35
299.98 K, 16109 kPa, x1 = 0.1002 | 175.535
299.98 K, 17997 kPa, x1 = 0.04999 | 193.879
299.98 K, 17999 kPa, x1 = 0.1002 | 193.977
299.98 K, 19830 kPa, x1 = 0.1002 | 211.228
299.98 K, 19957 kPa, x1 = 0.04999 | 212.314
324.97 K, 13743 kPa, x1 = 0.04999 | 137.825
324.98 K, 996.21 kPa, x1 = 0.04999 | 10.328
324.98 K, 997.48 kPa, x1 = 0.1002 | 10.342
324.98 K, 1970.2 kPa, x1 = 0.1002 | 20.421
324.98 K, 1981.3 kPa, x1 = 0.04999 | 20.531
324.98 K, 2991.3 kPa, x1 = 0.04999 | 30.967
324.98 K, 3998.5 kPa, x1 = 0.1002 | 41.357
324.98 K, 4008.5 kPa, x1 = 0.04999 | 41.449
324.98 K, 4980 kPa, x1 = 0.04999 | 51.417
324.98 K, 5960.8 kPa, x1 = 0.04999 | 61.428
324.98 K, 6000 kPa, x1 = 0.1002 | 61.847
324.98 K, 7025.8 kPa, x1 = 0.04999 | 72.228
324.98 K, 7991 kPa, x1 = 0.04999 | 81.935
324.98 K, 7999.4 kPa, x1 = 0.1002 | 82.05
324.98 K, 8998.7 kPa, x1 = 0.04999 | 91.988
